This is an account of results in patent US5925642A, “Pyridopyrimidines” (Byk Gulden Lomberg Chemische Fabrik GmbH, priority 1995, dated 1999).

By EC50 is commonly meant the concentration at which the effect is half-maximal. A higher EC50 goes with a less potent agent. A word on the pEC50: it is the EC50 on a negative log10 scale, so that one unit is a factor of ten.

Where a name gives a salt, the structure may show the parent alone.

T1 sequence (P08183 whole entry): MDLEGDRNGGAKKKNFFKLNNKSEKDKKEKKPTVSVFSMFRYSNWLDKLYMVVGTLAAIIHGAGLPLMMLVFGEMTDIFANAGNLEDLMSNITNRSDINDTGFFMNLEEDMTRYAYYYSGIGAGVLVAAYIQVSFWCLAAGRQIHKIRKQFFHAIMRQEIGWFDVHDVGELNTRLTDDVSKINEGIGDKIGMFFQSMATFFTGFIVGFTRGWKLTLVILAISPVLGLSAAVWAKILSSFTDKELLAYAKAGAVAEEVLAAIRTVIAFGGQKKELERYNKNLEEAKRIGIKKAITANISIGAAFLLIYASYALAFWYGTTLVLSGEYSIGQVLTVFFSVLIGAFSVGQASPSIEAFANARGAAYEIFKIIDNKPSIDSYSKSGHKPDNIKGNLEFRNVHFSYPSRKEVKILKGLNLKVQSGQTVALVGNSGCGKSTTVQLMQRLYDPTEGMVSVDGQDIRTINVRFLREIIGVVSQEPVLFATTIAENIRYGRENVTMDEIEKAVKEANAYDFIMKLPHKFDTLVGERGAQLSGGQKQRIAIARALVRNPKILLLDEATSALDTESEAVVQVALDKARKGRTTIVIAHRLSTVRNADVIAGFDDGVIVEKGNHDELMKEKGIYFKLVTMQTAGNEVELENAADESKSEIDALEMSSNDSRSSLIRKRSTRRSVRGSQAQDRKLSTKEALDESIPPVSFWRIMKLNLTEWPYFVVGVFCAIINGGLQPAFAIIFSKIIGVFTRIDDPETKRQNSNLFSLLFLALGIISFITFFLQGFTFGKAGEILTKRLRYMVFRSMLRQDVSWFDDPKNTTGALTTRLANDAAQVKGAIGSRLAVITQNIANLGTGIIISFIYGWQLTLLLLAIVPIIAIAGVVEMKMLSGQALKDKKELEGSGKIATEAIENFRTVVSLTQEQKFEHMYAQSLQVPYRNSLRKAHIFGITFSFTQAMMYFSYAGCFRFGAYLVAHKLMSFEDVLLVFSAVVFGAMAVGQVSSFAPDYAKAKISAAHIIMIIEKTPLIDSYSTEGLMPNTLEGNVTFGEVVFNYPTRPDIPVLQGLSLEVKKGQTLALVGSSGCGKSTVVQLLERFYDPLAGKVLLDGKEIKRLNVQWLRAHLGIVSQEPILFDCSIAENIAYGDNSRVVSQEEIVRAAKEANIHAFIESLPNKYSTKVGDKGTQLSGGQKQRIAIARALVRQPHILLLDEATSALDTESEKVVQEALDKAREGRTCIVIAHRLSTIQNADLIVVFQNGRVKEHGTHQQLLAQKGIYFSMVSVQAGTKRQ

The first assay concerns the target T1, p-glycoprotein (Homo sapiens, UniProt P08183).
T1 construct: Multidrug-resistant and -sensitive cells of the T-lymphoblastoid leukemia cell lines CCRF-VCR 1000 and CCRF-CEM are withdrawn from the cell culture; endogenous in cells; host or cells: CCRF-VCR 1000 (multidrug-resistant); CCRF-CEM (sensitive)
Description: Measurement of P-glycoprotein inhibition (Rhodamine 123 accumulation). The assay is classed as cell-based.
Settings: not given
The procedure: Multidrug-resistant and -sensitive cells of the T-lymphoblastoid leukemia cell lines CCRF-VCR 1000 and CCRF-CEM are withdrawn from the cell culture and harvested by centrifugation. The cells are taken up in RPMI medium (pH=7.3) without fetal calf serum and incubated at 37° C. for 30 min with the rising concentrations of resistance modulators. […] The excitation wavelength is 488 nm.
The number of the investigated compounds correspond to the numbers in the examples.
With `CCCCn1c(C)nc2nc(C)c(C(=O)CCCCN3CCC(c4ccccc4)(c4ccccc4)CC3)c(-c3cccc([N+](=O)[O-])c3)c2c1=O` [Compound 19], the half-maximal effective concentration (EC50) was 100 nM.

`Cc1nc2ncn(Cc3ccccc3)c(=O)c2c(-c2cccc([N+](=O)[O-])c2)c1C(=O)CCCCCCCCCCN1CCC(c2ccccc2)(c2ccccc2)CC1` [Compound 10] had an EC50 of 25.1 nM. Still for that read-out and setting: with `CCCCCn1cnc2nc(C)c(C(=O)CCCCCCCN3CCC(c4ccccc4)(c4ccccc4)CC3)c(-c3cccc([N+](=O)[O-])c3)c2c1=O` [Compound 4] the figure was 20 nM; with `Cc1nc2nc(C)n(CCN3CCOCC3)c(=O)c2c(-c2cccc([N+](=O)[O-])c2)c1C(=O)CCCCCCCCCCN1CCC(c2ccccc2)(c2ccccc2)CC1` [Compound 1, 3,4-Dihydro-2,7-dimethyl-3-[2-(4-morpholinyl)ethyl]-5-3-nitrophenyl)-4-oxo-6-[1-oxo-11-(4,4-diphenyl-1-piperidinyl)undecyl]-pyrido[2,3-d]pyrimidine dihydrochloride], 25.1 nM; with `CCCCCn1c(C)nc2nc(C)c(C(=O)CCCCCCCN3CCC(c4ccccc4)(c4ccccc4)CC3)c(-c3cccc([N+](=O)[O-])c3)c2c1=O` [Compound 14], 79.4 nM. Still for that read-out and setting: as for `CCCCn1cnc2nc(C)c(C(=O)CCCCCCCN3CCC(c4ccccc4)(c4ccccc4)CC3)c(-c3cccc([N+](=O)[O-])c3)c2c1=O` [Compound 21], the figure is 50.1 nM; as for `CCCn1c(C)nc2nc(C)c(C(=O)CCCCCCCN3CCC(c4ccccc4)(c4ccccc4)CC3)c(-c3cccc([N+](=O)[O-])c3)c2c1=O` [Compound 13], 50.1 nM; as for `CCCCn1c(C)nc2nc(C)c(C(=O)CCCCCCCN3CCC(c4ccccc4)(c4ccccc4)CC3)c(-c3cccc([N+](=O)[O-])c3)c2c1=O` [Compound 20], 31.6 nM. On the same count and under the same terms, as for `CCCn1cnc2nc(C)c(C(=O)CCCCCCCN3CCC(c4ccccc4)(c4ccccc4)CC3)c(-c3cccc([N+](=O)[O-])c3)c2c1=O` [Compound 3], the figure is 25.1 nM.

Take `Cc1nc2ncn(CCN3CCOCC3)c(=O)c2c(-c2cccc([N+](=O)[O-])c2)c1C(=O)CCCCCCCCCCN1CCC(c2ccccc2)(c2ccccc2)CC1` [Compound 12]: the concentration giving a half-maximal response (EC50) was 25.1 nM. On the same count and under the same terms, with `Cc1nc2nc(C)n(-c3ccccc3)c(=O)c2c(-c2cccc([N+](=O)[O-])c2)c1C(=O)CCCCCCCCCCN1CCC(c2ccccc2)(c2ccccc2)CC1` [Compound 2, 3,4-Dihydro-2,7-dimethyl-5-(3-nitrophenyl)-4-oxo-3-phenyl-6-[1-oxo-11-(4,4-diphenyl-1-piperidinyl)undecyl]pyrido[2,3-d]pyrimidine hydrochloride] the figure was 63.1 nM.

With `Cc1nc2nc(C)n(CCN3CCCCC3)c(=O)c2c(-c2cccc([N+](=O)[O-])c2)c1C(=O)CCCCCCCCCCN1CCC(c2ccccc2)(c2ccccc2)CC1` [Compound 16], the EC50 was 79.4 nM. The same measure, in the same setting: as for `COc1ccc(-n2cnc3nc(C)c(C(=O)CCCCCCCCCCN4CCC(c5ccccc5)(c5ccccc5)CC4)c(-c4cccc([N+](=O)[O-])c4)c3c2=O)cc1` [Compound 11], the figure is 39.8 nM; as for `Cc1nc2ncn(Cc3ccccc3)c(=O)c2c(-c2cccc([N+](=O)[O-])c2)c1C(=O)CCCCCCCN1CCC(c2ccccc2)(c2ccccc2)CC1` [Compound 22], 39.8 nM; as for `CCCn1cnc2nc(C)c(C(=O)CCCCCCCCCCN3CCC(c4ccccc4)(c4ccccc4)CC3)c(-c3cccc([N+](=O)[O-])c3)c2c1=O` [Compound 7], 50.1 nM. The molecule `CCCCn1cnc2nc(C)c(C(=O)CCCCCCCCCCN3CCC(c4ccccc4)(c4ccccc4)CC3)c(-c3cccc([N+](=O)[O-])c3)c2c1=O` [Compound 6] gave a concentration giving a half-maximal response (EC50) of 15.8 nM. Same read-out and setting: with `Cc1nc2nc(C)n(CCCN3CCOCC3)c(=O)c2c(-c2cccc([N+](=O)[O-])c2)c1C(=O)CCCCCCCCCCN1CCC(c2ccccc2)(c2ccccc2)CC1` [Compound 15] the figure was 31.6 nM; with `CCCCCn1cnc2nc(C)c(C(=O)CCCCCCCCCCN3CCC(c4ccccc4)(c4ccccc4)CC3)c(-c3cccc([N+](=O)[O-])c3)c2c1=O` [Compound 8], 31.6 nM; with `Cc1nc2ncn(-c3ccccc3)c(=O)c2c(-c2cccc([N+](=O)[O-])c2)c1C(=O)CCCCCCCCCCN1CCC(c2ccccc2)(c2ccccc2)CC1` [Compound 9], 63.1 nM. Consider `Cc1nc2ncn(CCCN3CCOCC3)c(=O)c2c(-c2cccc([N+](=O)[O-])c2)c1C(=O)CCCCCCCCCCN1CCC(c2ccccc2)(c2ccccc2)CC1` [Compound 17], for which the EC50 was 25.1 nM. Still for that read-out and setting: with `Cc1nc2nc(C)n(CCN3CCCCC3)c(=O)c2c(-c2cccc([N+](=O)[O-])c2)c1C(=O)CCCCCCCN1CCC(c2ccccc2)(c2ccccc2)CC1` [Compound 18] the figure was 50.1 nM.

Molecule `Cc1nc2nc(C)n(Cc3ccccc3)c(=O)c2c(-c2cccc([N+](=O)[O-])c2)c1C(=O)CCCCCCCN1CCC(c2ccccc2)(c2ccccc2)CC1` [Compound 23] gave a concentration giving a half-maximal response (EC50) of 50.1 nM.

The same assay, now with this note: CCRF-VCR 1000 and CCRF-CEM cells; Rhodamine 123 0.8 mg/l; 30 min preincubation, 1 h at 37° C.; RPMI without fetal calf serum, pH 7.3.
On to `Cc1nc2nc(C)n(CCN3CCOCC3)c(=O)c2c(-c2cccc([N+](=O)[O-])c2)c1C(=O)CCCCCCCN1CCC(c2ccccc2)(c2ccccc2)CC1` [Compound 5], for which the pEC50 is listed as 6.8.
